# Key:
# E2 = E2 (Hepatitis C virus genotype 1a, UniProt P27958); test: Binding of CD81 ligand 73735 to E2 (method not given); set-up: species or system HCV
# HCVcc = HCVcc infection of Huh-7 cells (Gaussia luciferase); assay type: cell-based, HCV; conditions: Hepatitis C virus, Huh-7, 30 h, read-out: IC50 HCVcc
# Procedure: The cell culture-produced HCV particles (HCVcc) used in this study were based on the JFH1 strain [36] and were prepared as described previously. They were engineered to express the A4 epitope, titer-enhancing mutations and Gaussia luciferase.
# (§1) To identify ligands that inhibit HCV infection, Huh-7 cells were seeded in 96-well plates and treated the day after with six different concentrations of each ligand diluted in DMSO in duplicate using a Zephyr automated liquid handling workstation (Caliper BioSciences, Hopkinton, Mass.). The final concentration of DMSO (1%) was adjusted to be the same for all ligand concentrations. Cells treated with DMSO were used as negative controls. Cells treated with different concentrations of anti-CD81 (JS-81 from BD Pharmingen, San Jose, Calif.) 1 hour before infection, were also used as positive controls. The third day, RD114pp, HCVpp or HCVcc were inoculated and incubated for 30 hours at 37° C. Firefly and Gaussia luciferase assays were performed as indicated by the manufacturer (Promega, San Luis Obispo, Calif.).
# (§2) The remaining ligands were next tested against pseudotyped retroviral particles harboring genotype-2a HCV envelope proteins (HCVpp 2a), cell culture produced HCV particles (HCVcc) or RD114pp. As a positive control, an anti-CD81 antibody was used in parallel.
# RD114pp = RD114pp infection of Huh-7 cells (luciferase); assay type: cell-based, feline endogenous virus RD114; conditions: Feline endogenous virus RD114, Huh-7, 30 h, read-out: IC50 RD114pp
# Procedure: (§3) Pseudotyped retroviral particles harboring HCV envelope proteins (HCVpp) from different genotypes were produced as described previously. A plasmid encoding the feline endogenous virus RD114 glycoprotein [35] was used for the production of RD114pp. Both HCVpp and RD114pp expressed Firefly luciferase.
# as §1
# Pseudotyped retroviral particles harboring the envelope protein of an endogenous feline retrovirus (RD114pp) were first used to determine the specificity and the safety of molecules.
# recombinant E2 protein = biological target: T1, recombinant E2 protein (Hepatitis C virus genotype 1b, UniProt Q9WMX2); test: Surface plasmon resonance (Biacore T100) binding to recombinant E2 immobilized on CM5 chip; conditions: for Binding (RU): 200 μM ligand in PBS, 3 min association; for Dissociation 1 (RU): response remaining 10 sec after rinsing with buffer; for Dissociation 2 (RU): response remaining 50 sec after rinsing with buffer; for rate of ligand dissociation (in words): compared to the other ligands
# T1 construct: encoding amino acids 384-656 of the Con1 envelope protein 2 ectodomain (eE2); made in house; host or cells: HEK293T cells (lentiviral, secreted)
# T1 sequence (Q9WMX2 384-656): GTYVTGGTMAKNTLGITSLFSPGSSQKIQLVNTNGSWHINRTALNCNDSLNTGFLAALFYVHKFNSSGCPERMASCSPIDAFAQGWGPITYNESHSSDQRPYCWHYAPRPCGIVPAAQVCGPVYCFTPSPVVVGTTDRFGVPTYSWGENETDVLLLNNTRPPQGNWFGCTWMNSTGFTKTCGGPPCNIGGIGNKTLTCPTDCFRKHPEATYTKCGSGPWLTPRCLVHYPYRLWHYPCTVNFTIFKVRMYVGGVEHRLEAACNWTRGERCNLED
# Source text: A construct containing the sequence encoding amino acids 384-656 of the Con1 envelope protein 2 ectodomain (eE2), a genoptype 1 E2 sequence, was cloned into a lentiviral expression vector with a carboxy-terminal Protein A tag separated by a PreScission Protease cleavage consensus sequence. eE2-ProtA was stably expressed in HEK293T cells using lentiviral infection. The protein was secreted into the media and supernatants were purified using IgG Sepharose (GE Healthcare, Piscataway, N.J.). eE2-ProtA was eluted with 100 mM sodium citrate and 20 mM KCl at pH 3 directly into tubes containing 1M Tris pH 9 for immediate neutralization. PreScission Protease was added to the eluted sample at a ratio of 1:50 (enzyme:eE2), and the digest was then dialyzed into 20 mM HEPES pH 7.5, 250 mM NaCl, 5% glycerol. eE2 was separated from the cleaved tag and the PreScission Protease by ion exchange chromatography.
# The set of 34 of the ligands predicted by AutoDock to bind to E2 were tested experimentally to determine if they bind to recombinant E2 protein immobilized on a chip using surface Plasmon resonance. The SPR analyses were performed using a Biacore T100 workstation (GE Healthcare, NJ, USA) and Prot-A-tagged HCV E2 protein. 1 μM ProtA-HCV E2 was diluted into 10 mM sodium acetate buffer pH 5 and immobilized for 15 min at a flow speed of 5 μl/min onto a CM5 sensor chip using amine coupling (EDC-NHS). Approximately 10,000 response units (RU) of protein were immobilized on the chip. His-CD81-LEL (Bioclone-CA/USA) binding to HCV E2 was tested prior to injecting the ligands to confirm the E2 protein was functional and would bind CD81-LEL. In a typical experiment with CD81, […] of his-CD81 in 114 μl PBS was injected into channel 2 and 106.4 RUs of CD81 bound to the E2 on the chip. This was followed by testing the binding of the 34 virtual screening hits where the ligands were prepared as 200 μM solutions in PBS and they were introduced to the protein using a pre-programmed 3 min association and 1 min dissociation interval. The response was measured at two time points during dissociation, 10 and 50 seconds, to obtain information on the rate of ligand dissociation from E2. Twenty-three of the ligands predicted by AutoDock to bind to E2 were observed by SPR to bind to the recombinant protein (Table 2). The measured responses for the ligands that bound varied from 54 to 276 RUs. Data was also obtained on the rate of ligand dissociation by measuring the amount of ligand remaining bound at two time points, dissociation 1 (10 seconds) and dissociation 2 (50 seconds), during the rinsing of the chip with buffer (FIG. 8). The majority of the ligands dissociated quickly, as one might expect for small molecules that bind to the surface of a protein.
# HCVpp 2a = HCVpp 2a infection of Huh-7 cells, 96-well (luciferase); assay type: cell-based, HCV; conditions: Hepatitis C virus, Huh-7, 30 h, read-out: IC50 HCVpp
# Procedure: as §3, §1, §2
# Sequence of E2 (P27958 384-746): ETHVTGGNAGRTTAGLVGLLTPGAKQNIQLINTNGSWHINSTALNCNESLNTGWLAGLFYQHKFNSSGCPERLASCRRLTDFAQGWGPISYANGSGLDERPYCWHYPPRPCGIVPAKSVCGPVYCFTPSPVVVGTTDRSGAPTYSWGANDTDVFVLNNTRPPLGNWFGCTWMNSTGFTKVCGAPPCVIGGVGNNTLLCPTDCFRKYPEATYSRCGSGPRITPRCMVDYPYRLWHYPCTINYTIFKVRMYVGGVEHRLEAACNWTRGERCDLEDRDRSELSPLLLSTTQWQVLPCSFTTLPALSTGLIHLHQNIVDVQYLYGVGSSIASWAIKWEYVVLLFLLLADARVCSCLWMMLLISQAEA
SMILES,binding to E2 (in words) (E2),IC50 (HCVcc),IC50 (RD114pp),Binding (RU) (recombinant E2 protein),Dissociation 1 (RU) (recombinant E2 protein),Dissociation 2 (RU) (recombinant E2 protein),IC50 (HCVpp 2a),rate of ligand dissociation (in words) (recombinant E2 protein)
COc1cc(-c2ccc(Nc3ccccc3C(=O)O)c(OC)c2)ccc1Nc1ccccc1C(=O)O [Ligand 73735],determined to bind to E2,–,–,–,–,–,–,–
O=C(Nc1cccc([N+](=O)[O-])c1)c1cccc(C(=O)Nc2cccc([N+](=O)[O-])c2)c1 [Ligand 204232],–,> 10 µM,> 10 µM,63.4 RU,2.5 RU,0.4 RU,> 10 µM,–
"Nc1nc(N)nc(-c2ccccc2-c2nc(N)nc(N)n2)n1 [Ligand 4429, 6-[2-(4,6-diamino-1,3,5-triazin-2-yl)phenyl]-1,3,5-triazine-2,4-diamine]",–,> 10 µM,> 10 µM,155.3 RU,28.9 RU,14.2 RU,> 10 µM,slower off rates
"O=S(=O)(F)c1ccc2nc(-c3cccc(Sc4ccccc4)c3)cc(Cl)c2c1 [Ligand 158413, 4-chloro-2-(3-phenylsulfanylphenyl) quinoline-6-sulfonyl fluoride]",–,> 10 µM,> 10 µM,71.2 RU,10.3 RU,8.5 RU,> 10 µM,slower off rates
